Results published in ChEMBL document CHEMBL1909046, “DrugMatrix in vitro pharmacology data”.

Each compound was assayed against T1, Thromboxane-A synthase (Homo sapiens, UniProt P24557) (assay: biochemical). Conditions: platelet.
T1 sequence (P24557 whole entry): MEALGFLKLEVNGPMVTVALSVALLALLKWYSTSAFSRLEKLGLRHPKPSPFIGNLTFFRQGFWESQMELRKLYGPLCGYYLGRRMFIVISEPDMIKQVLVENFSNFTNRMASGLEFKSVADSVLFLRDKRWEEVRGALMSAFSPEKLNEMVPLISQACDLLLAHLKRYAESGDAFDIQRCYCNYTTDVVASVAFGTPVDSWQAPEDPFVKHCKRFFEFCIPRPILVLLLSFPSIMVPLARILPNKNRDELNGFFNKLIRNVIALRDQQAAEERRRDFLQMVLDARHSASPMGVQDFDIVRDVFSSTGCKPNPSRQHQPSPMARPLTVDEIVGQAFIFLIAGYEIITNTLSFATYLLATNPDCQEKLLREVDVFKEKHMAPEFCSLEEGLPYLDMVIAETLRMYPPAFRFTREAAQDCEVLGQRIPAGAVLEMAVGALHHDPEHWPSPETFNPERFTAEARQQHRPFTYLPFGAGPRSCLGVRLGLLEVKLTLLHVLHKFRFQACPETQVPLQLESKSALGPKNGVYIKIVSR
Assay type: tissue-based, Platelet

| SMILES | IC50 |
| --- | --- |
| CCCCC(=O)N(Cc1ccc(-c2ccccc2-c2nnn[nH]2)cc1)[C@H](C(=O)O)C(C)C | Not Active |
| O=C(O)COc1ccc(C(=O)c2cccs2)c(Cl)c1Cl | Not Active |
| CN1[C@@H]2CC[C@H]1C[C@@H](OC(c1ccccc1)c1ccccc1)C2 [BENZTROPINE] | Not Active |
| C[C@@](Cc1ccc(O)c(O)c1)(NN)C(=O)O.O [CARBIDOPA] | Not Active |
| CN1CCN(C2=Nc3cc(Cl)ccc3Nc3ccccc32)CC1 [CLOZAPINE] | Not Active |
| CC(C)NC[C@@H](O)COc1cccc2ccccc12 [DEXPROPRANOLOL] | Not Active |
| CC(C)NC[C@H](O)COc1cccc2ccccc12 [LEVOPROPRANOLOL] | Not Active |
| O=C(O)CCCCC1CCSS1 (stereo not drawn) [LIPOIC ACID, ALPHA] | Not Active |
| CN(C)C(=O)C(CCN1CCC(O)(c2ccc(Cl)cc2)CC1)(c1ccccc1)c1ccccc1 [LOPERAMIDE] | Not Active |
| Oc1ccc2c3c1O[C@H]1[C@@H](O)CC[C@@]4(O)[C@@H](C2)N(CC2CCC2)CC[C@]314 [NALBUPHINE] | Not Active |
| C[C@]12C=CC(=O)C=C1CC[C@@H]1[C@@H]2C(=O)C[C@@]2(C)[C@H]1CC[C@]2(O)C(=O)CO [PREDNISONE] | Not Active |
| OCCOCCN1CCN(C2=Nc3ccccc3Sc3ccccc32)CC1 [QUETIAPINE] | Not Active |
| COC(=O)[C@H]1[C@H]2C[C@@H]3c4[nH]c5cc(OC)ccc5c4CCN3C[C@H]2C[C@@H](OC(=O)c2cc(OC)c(OC)c(OC)c2)[C@@H]1OC [RESERPINE] | Not Active |
| O=C(O)c1ccccc1O [SALICYLIC ACID] | Not Active |

The compounds below were run against Melanocortin receptor 4 (Homo sapiens, UniProt P32245) (assay: not given). Conditions: hek293.
Assay type: cell membranes, Membrane

Melanocortin receptor 4, sequence (P32245 whole entry): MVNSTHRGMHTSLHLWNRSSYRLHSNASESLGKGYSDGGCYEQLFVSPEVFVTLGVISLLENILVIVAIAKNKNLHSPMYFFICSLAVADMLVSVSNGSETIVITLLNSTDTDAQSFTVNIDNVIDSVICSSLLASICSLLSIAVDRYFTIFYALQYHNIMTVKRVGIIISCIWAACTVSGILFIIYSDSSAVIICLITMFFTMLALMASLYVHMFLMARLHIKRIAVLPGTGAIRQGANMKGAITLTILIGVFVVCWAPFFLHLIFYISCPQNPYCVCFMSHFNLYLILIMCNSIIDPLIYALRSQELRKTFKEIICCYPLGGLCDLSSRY

| SMILES | IC50 |
| --- | --- |
| CCCCC(=O)N(Cc1ccc(-c2ccccc2-c2nnn[nH]2)cc1)[C@H](C(=O)O)C(C)C | Not Active |
| O=C(O)COc1ccc(C(=O)c2cccs2)c(Cl)c1Cl | Not Active |
| CN1[C@@H]2CC[C@H]1C[C@@H](OC(c1ccccc1)c1ccccc1)C2 [BENZTROPINE] | Not Active |
| C[C@@](Cc1ccc(O)c(O)c1)(NN)C(=O)O.O [CARBIDOPA] | Not Active |
| CN1CCN(C2=Nc3cc(Cl)ccc3Nc3ccccc32)CC1 [CLOZAPINE] | Not Active |
| CC(C)NC[C@@H](O)COc1cccc2ccccc12 [DEXPROPRANOLOL] | Not Active |
| CC(C)NC[C@H](O)COc1cccc2ccccc12 [LEVOPROPRANOLOL] | Not Active |
| O=C(O)CCCCC1CCSS1 (stereo not drawn) [LIPOIC ACID, ALPHA] | Not Active |
| CN(C)C(=O)C(CCN1CCC(O)(c2ccc(Cl)cc2)CC1)(c1ccccc1)c1ccccc1 [LOPERAMIDE] | Not Active |
| Oc1ccc2c3c1O[C@H]1[C@@H](O)CC[C@@]4(O)[C@@H](C2)N(CC2CCC2)CC[C@]314 [NALBUPHINE] | Not Active |
| C[C@]12C=CC(=O)C=C1CC[C@@H]1[C@@H]2C(=O)C[C@@]2(C)[C@H]1CC[C@]2(O)C(=O)CO [PREDNISONE] | Not Active |
| OCCOCCN1CCN(C2=Nc3ccccc3Sc3ccccc32)CC1 [QUETIAPINE] | Not Active |
| COC(=O)[C@H]1[C@H]2C[C@@H]3c4[nH]c5cc(OC)ccc5c4CCN3C[C@H]2C[C@@H](OC(=O)c2cc(OC)c(OC)c(OC)c2)[C@@H]1OC [RESERPINE] | Not Active |
| O=C(O)c1ccccc1O [SALICYLIC ACID] | Not Active |

These compounds were tested against T2, Amine oxidase [flavin-containing] A (Homo sapiens, UniProt P21397) (assay: DRUGMATRIX: Monoamine Oxidase MAO-A enzyme inhibition (substrate: Kynuramine)). Conditions: bti-tn-5b1-4; Not Active = under 50% inhibition at 10 µM.
T2 sequence (P21397 whole entry): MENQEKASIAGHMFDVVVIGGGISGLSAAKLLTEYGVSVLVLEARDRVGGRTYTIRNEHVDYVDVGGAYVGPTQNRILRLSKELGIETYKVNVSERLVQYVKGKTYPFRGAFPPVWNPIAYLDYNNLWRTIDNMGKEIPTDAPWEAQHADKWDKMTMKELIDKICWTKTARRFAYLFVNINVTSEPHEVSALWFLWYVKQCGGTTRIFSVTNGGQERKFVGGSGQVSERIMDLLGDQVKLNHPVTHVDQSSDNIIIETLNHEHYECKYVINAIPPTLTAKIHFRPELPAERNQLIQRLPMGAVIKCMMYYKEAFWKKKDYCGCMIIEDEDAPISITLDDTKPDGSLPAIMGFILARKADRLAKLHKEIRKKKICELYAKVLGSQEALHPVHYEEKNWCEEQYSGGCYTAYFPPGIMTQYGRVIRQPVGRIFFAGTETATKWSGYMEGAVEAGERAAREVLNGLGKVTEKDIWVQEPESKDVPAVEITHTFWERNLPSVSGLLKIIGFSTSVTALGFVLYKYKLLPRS
Set-up: species or system BTI-TN-5B1-4

| SMILES | IC50 |
| --- | --- |
| CCCCC(=O)N(Cc1ccc(-c2ccccc2-c2nnn[nH]2)cc1)[C@H](C(=O)O)C(C)C | Not Active |
| O=C(O)COc1ccc(C(=O)c2cccs2)c(Cl)c1Cl | Not Active |
| CN1[C@@H]2CC[C@H]1C[C@@H](OC(c1ccccc1)c1ccccc1)C2 [BENZTROPINE] | Not Active |
| C[C@@](Cc1ccc(O)c(O)c1)(NN)C(=O)O.O [CARBIDOPA] | Not Active |
| CN1CCN(C2=Nc3cc(Cl)ccc3Nc3ccccc32)CC1 [CLOZAPINE] | Not Active |
| CC(C)NC[C@@H](O)COc1cccc2ccccc12 [DEXPROPRANOLOL] | Not Active |
| CC(C)NC[C@H](O)COc1cccc2ccccc12 [LEVOPROPRANOLOL] | Not Active |
| O=C(O)CCCCC1CCSS1 (stereo not drawn) [LIPOIC ACID, ALPHA] | Not Active |
| CN(C)C(=O)C(CCN1CCC(O)(c2ccc(Cl)cc2)CC1)(c1ccccc1)c1ccccc1 [LOPERAMIDE] | Not Active |
| Oc1ccc2c3c1O[C@H]1[C@@H](O)CC[C@@]4(O)[C@@H](C2)N(CC2CCC2)CC[C@]314 [NALBUPHINE] | Not Active |
| C[C@]12C=CC(=O)C=C1CC[C@@H]1[C@@H]2C(=O)C[C@@]2(C)[C@H]1CC[C@]2(O)C(=O)CO [PREDNISONE] | Not Active |
| OCCOCCN1CCN(C2=Nc3ccccc3Sc3ccccc32)CC1 [QUETIAPINE] | Not Active |
| COC(=O)[C@H]1[C@H]2C[C@@H]3c4[nH]c5cc(OC)ccc5c4CCN3C[C@H]2C[C@@H](OC(=O)c2cc(OC)c(OC)c(OC)c2)[C@@H]1OC [RESERPINE] | Not Active |
| O=C(O)c1ccccc1O [SALICYLIC ACID] | Not Active |

Each compound was assayed against T3, Nitric oxide synthase, inducible (Mus musculus, UniProt P29477) (assay: not given). Conditions: not given.
T3 sequence (P29477 whole entry): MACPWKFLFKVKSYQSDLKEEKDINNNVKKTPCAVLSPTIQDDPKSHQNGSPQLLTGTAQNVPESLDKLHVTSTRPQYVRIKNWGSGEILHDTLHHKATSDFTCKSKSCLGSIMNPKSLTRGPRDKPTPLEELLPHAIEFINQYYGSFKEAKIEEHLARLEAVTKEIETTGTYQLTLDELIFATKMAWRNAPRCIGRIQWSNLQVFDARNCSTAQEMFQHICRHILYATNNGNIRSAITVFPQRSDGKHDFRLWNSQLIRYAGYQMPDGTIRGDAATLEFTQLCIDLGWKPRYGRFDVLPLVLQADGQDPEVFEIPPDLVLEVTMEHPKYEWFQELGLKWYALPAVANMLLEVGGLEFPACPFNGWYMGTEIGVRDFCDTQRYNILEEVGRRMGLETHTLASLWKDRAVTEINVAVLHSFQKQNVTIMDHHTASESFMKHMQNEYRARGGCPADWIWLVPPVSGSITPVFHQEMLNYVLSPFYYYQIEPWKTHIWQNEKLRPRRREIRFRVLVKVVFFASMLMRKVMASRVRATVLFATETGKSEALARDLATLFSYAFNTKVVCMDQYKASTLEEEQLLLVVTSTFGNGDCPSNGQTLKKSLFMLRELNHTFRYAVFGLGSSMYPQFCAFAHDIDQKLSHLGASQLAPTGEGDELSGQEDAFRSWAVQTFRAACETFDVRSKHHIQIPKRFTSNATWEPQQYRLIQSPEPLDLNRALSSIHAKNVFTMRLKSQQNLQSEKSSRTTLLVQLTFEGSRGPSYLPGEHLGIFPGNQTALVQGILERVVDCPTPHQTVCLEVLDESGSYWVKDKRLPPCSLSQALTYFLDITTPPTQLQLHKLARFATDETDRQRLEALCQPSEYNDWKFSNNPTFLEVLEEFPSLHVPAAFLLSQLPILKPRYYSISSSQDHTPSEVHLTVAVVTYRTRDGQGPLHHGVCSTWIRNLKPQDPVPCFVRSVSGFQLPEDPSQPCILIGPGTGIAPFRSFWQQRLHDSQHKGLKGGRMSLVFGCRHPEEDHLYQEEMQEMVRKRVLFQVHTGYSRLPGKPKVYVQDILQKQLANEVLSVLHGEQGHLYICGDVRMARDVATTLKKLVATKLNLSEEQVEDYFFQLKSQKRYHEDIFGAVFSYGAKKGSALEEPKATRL
Set-up: species or system Escherichia coli

| SMILES | IC50 |
| --- | --- |
| CCCCC(=O)N(Cc1ccc(-c2ccccc2-c2nnn[nH]2)cc1)[C@H](C(=O)O)C(C)C | Not Active |
| O=C(O)COc1ccc(C(=O)c2cccs2)c(Cl)c1Cl | Not Active |
| CN1[C@@H]2CC[C@H]1C[C@@H](OC(c1ccccc1)c1ccccc1)C2 [BENZTROPINE] | Not Active |
| C[C@@](Cc1ccc(O)c(O)c1)(NN)C(=O)O.O [CARBIDOPA] | Not Active |
| CN1CCN(C2=Nc3cc(Cl)ccc3Nc3ccccc32)CC1 [CLOZAPINE] | Not Active |
| CC(C)NC[C@@H](O)COc1cccc2ccccc12 [DEXPROPRANOLOL] | Not Active |
| CC(C)NC[C@H](O)COc1cccc2ccccc12 [LEVOPROPRANOLOL] | Not Active |
| O=C(O)CCCCC1CCSS1 (stereo not drawn) [LIPOIC ACID, ALPHA] | Not Active |
| CN(C)C(=O)C(CCN1CCC(O)(c2ccc(Cl)cc2)CC1)(c1ccccc1)c1ccccc1 [LOPERAMIDE] | Not Active |
| Oc1ccc2c3c1O[C@H]1[C@@H](O)CC[C@@]4(O)[C@@H](C2)N(CC2CCC2)CC[C@]314 [NALBUPHINE] | Not Active |
| C[C@]12C=CC(=O)C=C1CC[C@@H]1[C@@H]2C(=O)C[C@@]2(C)[C@H]1CC[C@]2(O)C(=O)CO [PREDNISONE] | Not Active |
| OCCOCCN1CCN(C2=Nc3ccccc3Sc3ccccc32)CC1 [QUETIAPINE] | Not Active |
| COC(=O)[C@H]1[C@H]2C[C@@H]3c4[nH]c5cc(OC)ccc5c4CCN3C[C@H]2C[C@@H](OC(=O)c2cc(OC)c(OC)c(OC)c2)[C@@H]1OC [RESERPINE] | Not Active |
| O=C(O)c1ccccc1O [SALICYLIC ACID] | Not Active |
